Results on 1 substance are retold here after patent US20070141086A1 (priority 2003, published 2007).

The experiment concerns virulent culture of M. haemolytica (Oklahoma State strain). The format is in vivo, beef calves. The note with it: conclusion over vaccination and challenge study in calves. The procedure:
For the vaccination challenge, 5 ml of a virulent culture of M. haemolytica (Oklahoma State strain) was administered by transthoracic injection into the right and left caudal lung lobes of each calf (10 ml of culture per calf) on Day 34 of the study. The inoculum contained approximately 5.6×10^8 CFU/ml.
One animal in T01 died immediately following challenge due to pulmonary hemorrhage as a result of challenge administration; thus its lung lesion data was excluded from the analysis. One animal in T03 was found dead on Day 37 as a result of severe pneumonia but was necropsied and its lung data was analyzed along with the data from the other animals. There were no significant differences between the treatment groups (P>0.05).

As to Tulathromycin, the “Overall adjuvant function / immune response indicators (antibody production, attitude, respiratory effort, lung lesions)” value is on record as “appeared to effectively replace the adjuvant”.
